Measured values: article PMC9764201, “Half-calcified calmodulin promotes basal activity and inactivation of the L-type calcium channel CaV1.2” (The Journal of Biological Chemistry, 2022)

System: CaV1.2
Assay: Whole-cell patch clamp of CaV1.2 variants in HEK 293T/17 cells
Type: cell-based, rat
Conditions: interleaved WT, mean±SEM; for Imax Ba2+ (peak current density) / Imax Ba2+ (r300): 10 mM Ba^2+; for Imax Ba2+ (peak current density): 0 mV; for Imax Ca2+ (peak current density) / Imax Ca2+ (r300): 10 mM Ca^2+; for Imax Ca2+ (peak current density): +20 mV; for VDI300: 1-(Ba300/Bamax); for netCDI300: 1-(Ca300/Camax)/(Ba300/Bamax); for Imax Ba2+ (r300) / Imax Ca2+ (r300): fraction of maximal current remaining after 300 ms
Method: HEK 293T/17 cells (ATCC) were maintained as previously described ([15], [53]). For electrophysiology, Lipofectamine 2000 (Invitrogene) or JetPrime (Polyplus Transfection) was used to transiently transfect cells with indicated plasmid DNAs in 35 mm dishes. For biochemistry experiments, transient transfection of HEK 293T/17 cells in […] dishes was achieved using either JetPrime or, as previously described ([15], [53]), the calcium phosphate method. Cells were cotransfected with plasmids encoding the pore-forming α11.2 subunit N-terminally tagged with eCFP ([15], [53]) or mCherry ([54]) plus pGWIH-based plasmids encoding the auxiliary subunits rat β2A ([55]) and rabbit α2δ-1 ([56]) as previously described ([15], [53]). For all transfections, equimolar ratio of 1:1:1 was used for CaV1.2 channel subunits and later further optimized (JetPrime) for CaM (at ratio of 1:1:1:0.5 for α11.2:β2A:α2δ−1:CaM). Rat brain α11.2 (GenBank ID: M67515.1) N-terminally fused to eCFP was utilized as previously described ([15]). The point mutations in plasmids encoding single-residue I1654A, Y1657D (this report), and K1662E exchanges in α11.2 were generated via QuikChange II as previously described ([15], [53]) using N-terminally eCFP ([15], [53]) or mCherry tagged ([54]) rat brain α11.2 plasmid template DNAs. We studied CDI using mCherry-tagged α11.2 subunit coexpressed with the other, untagged CaV1.2 subunits and WT CaM or the calmodulin 34 mutant CaM34 (kindly provided by JP Adelman, ([8])). For some biochemical experiments shown in Fig. S2, YFP-tagged CaM was used ([32]).
Macroscopic Ba^2+- (IBa) and Ca^2+ currents (ICa) of CaV1.2 L-type Ca^2+ channels were obtained in the whole-cell configuration using external bath solution containing (in mM) 134 N-methyl-D-glucamine, 10 BaCl2 (for CDI, 10 CaCl2), 1 MgCl2, 10 Hepes, and 10 glucose with an adjusted pH of 7.4 (Cs-OH) and an osmolarity of 300 to 310 mOsm (sucrose). Intracellular pipette solution contained (in mM) 125 Cs-MeSO3, 5 CsCl, 10 EGTA, 10 Hepes, 1 MgCl2, 4 Mg-ATP, and pH 7.3 (CsOH), mOsm 290 to 300 (sucrose). Cells were clamped at a holding potential of -80 mV and depolarized for 900 ms to a series of activating potentials, from −60 mV to +50 mV (or +80 mV for Ca^2+ currents), in increments of 10 mV at an interval of 0.033 Hz. The series resistance and the cell capacitance were directly taken from the Amplifier (Axopatch 200B, Molecular Device) and compensated to ∼40%. Data were sampled at 10 kHz and lowpass filtered at 2 kHz. Leak subtracted raw data were analyzed with Pclamp10 and GraphPad Prism IX software. All recordings were performed at room temperature (RT).
Table S1. HEK 293T/17 cells were transiently transfected with eCFP-tagged rat CaV1.2 (WT versus I1654A and K1662E or versus Y1657D) plus α2δ1 and β2a and whole cell current recorded (see Fig. 3 for more details).
Panel A. Peak current density from I/V curves of whole-cell recordings. Imax values were determined at +20 mV for Ca2+ and 0 mV for Ba2+.
Panel B. r300 values and quantification of CDI and VDI. Whole-cell currents remaining after 300 ms of depolarization (r300) are given as fraction of maximal currents based on values in A. Net CDI was calculated as the ratiometric value net 1-(Ca300/Camax)/(Ba300/Bamax) and VDI as 1- […]
For each panel: Top: Analysis of interleaved recordings of CaV1.2 WT versus I1654A and K1662E IQ- mutants (one-way ANOVA with a Bonferroni post-hoc test; *p<0.05, **p<0.01 and ***p<0.001 and ****p<0.0001). Bottom: Analysis of interleaved recordings of CaV1.2 WT versus Y1657D IQ-mutant CaV1.2 (unpaired T-Test, *p<0.05 and ****p<0.0001). […]
mean±SEM and numbers in parentheses (n) are independent experiments.
IQ-variant ImaxCa2+(pA/pF) ImaxBa2+(pA/pF) p-value

“CaV1.2: WT rat brain α11.2 with α2δ1 and β2A expressed in HEK 293T/17 cells” was tested, and the “Imax Ba2+ (peak current density)” value (I1654A, K1662E) was 46.7±9.1 pA/pF, the “Imax Ba2+ (peak current density)” value (Y1657D) was 21.8±4 pA/pF and the “Imax Ca2+ (peak current density)” value (I1654A, K1662E) was 18.3±4.2 pA/pF. For the same substance, the “Imax Ca2+ (peak current density)” value (Y1657D) was 16.4±2.1 pA/pF, the VDI300 (I1654A, K1662E) was 0.19±0.02 and the VDI300 (Y1657D) was 0.17±0.02. The netCDI300 (I1654A, K1662E) was 0.59±0.04, the netCDI300 (Y1657D) was 0.61±0.03 and the “Imax Ba2+ (r300)” value (I1654A, K1662E) was 0.81±0.02. For the same substance, the “Imax Ba2+ (r300)” value (Y1657D) was 0.83±0.02, the “Imax Ca2+ (r300)” value (I1654A, K1662E) was 0.33±0.03 and the “Imax Ca2+ (r300)” value (Y1657D) was 0.32±0.03.
